Measured values published in the NIST ThermoML archive (doi:10.1016/j.jct.2018.04.003).
Numbers after ± are expanded uncertainties.

Experiment: mn = molality of the nth substance listed, in mol/kg
Conditions: 101.3 kPa, Liquid; for speed of sound: Frequency=2 MHz, Linear variable-path acoustic interferometer; for mass density: Pycnometric method

NNC(=O)c1ccncc1 [isonicotinic acid hydrazide] + O
Conditions	mass density [kg/m3]	speed of sound [m/s]
288.15 K, m1 = 0.0099	999.49 ± 0.55	1466.6 ± 1.8
288.15 K, m1 = 0.02	999.88 ± 0.55	1467.3 ± 1.8
288.15 K, m1 = 0.03	1000.26 ± 0.55	1468 ± 1.8
288.15 K, m1 = 0.0401	1000.64 ± 0.55	1468.7 ± 1.8
288.15 K, m1 = 0.0495	1001 ± 0.55	1469.4 ± 1.8
288.15 K, m1 = 0.055	1001.19 ± 0.55	1469.8 ± 1.8
288.15 K, m1 = 0.06	1001.38 ± 0.55	1470.1 ± 1.8
288.15 K, m1 = 0.065	1001.55 ± 0.55	1470.5 ± 1.8
288.15 K, m1 = 0.0708	1001.77 ± 0.55	1470.9 ± 1.8
288.15 K, m1 = 0.075	1001.92 ± 0.55	1471.2 ± 1.8
288.15 K, m1 = 0.0809	1002.12 ± 0.55	1471.6 ± 1.8
288.15 K, m1 = 0.0846	1002.25 ± 0.55	1471.9 ± 1.8
288.15 K, m1 = 0.0901	1002.45 ± 0.55	1472.3 ± 1.8
288.15 K, m1 = 0.0949	1002.62 ± 0.55	1472.6 ± 1.8
288.15 K, m1 = 0.1002	1002.81 ± 0.55	1473 ± 1.8
298.15 K, m1 = 0.0099	997.39 ± 0.55	1497.4 ± 1.8
298.15 K, m1 = 0.0197	997.69 ± 0.55	1498.1 ± 1.8
298.15 K, m1 = 0.0299	998.02 ± 0.55	1498.8 ± 1.8
298.15 K, m1 = 0.04	998.35 ± 0.55	1499.6 ± 1.8
298.15 K, m1 = 0.0499	998.67 ± 0.55	1500.3 ± 1.8
298.15 K, m1 = 0.055	998.83 ± 0.55	1500.6 ± 1.8
298.15 K, m1 = 0.0599	998.99 ± 0.55	1500.9 ± 1.8
298.15 K, m1 = 0.0649	999.15 ± 0.55	1501.3 ± 1.8
298.15 K, m1 = 0.0699	999.31 ± 0.55	1501.6 ± 1.8
298.15 K, m1 = 0.075	999.47 ± 0.55	1502 ± 1.8
298.15 K, m1 = 0.0797	999.61 ± 0.55	1502.3 ± 1.8
298.15 K, m1 = 0.085	999.78 ± 0.55	1502.7 ± 1.8
298.15 K, m1 = 0.0897	999.92 ± 0.55	1503 ± 1.8
298.15 K, m1 = 0.0949	1000.09 ± 0.55	1503.4 ± 1.8
298.15 K, m1 = 0.1006	1000.26 ± 0.55	1503.8 ± 1.9
308.15 K, m1 = 0.0099	994.3 ± 0.56	1520.5 ± 1.8
308.15 K, m1 = 0.0199	994.58 ± 0.56	1521.3 ± 1.8
308.15 K, m1 = 0.0301	994.85 ± 0.56	1522 ± 1.8
308.15 K, m1 = 0.04	995.12 ± 0.56	1522.7 ± 1.8
308.15 K, m1 = 0.0501	995.39 ± 0.56	1523.5 ± 1.8
308.15 K, m1 = 0.055	995.52 ± 0.56	1523.9 ± 1.8
308.15 K, m1 = 0.06	995.64 ± 0.56	1524.2 ± 1.8
308.15 K, m1 = 0.0649	995.76 ± 0.56	1524.6 ± 1.8
308.15 K, m1 = 0.0699	995.9 ± 0.56	1525 ± 1.8
308.15 K, m1 = 0.0751	996.03 ± 0.56	1525.3 ± 1.8
308.15 K, m1 = 0.0799	996.15 ± 0.56	1525.7 ± 1.8
308.15 K, m1 = 0.0851	996.28 ± 0.56	1526.1 ± 1.8
308.15 K, m1 = 0.09	996.41 ± 0.56	1526.4 ± 1.8
308.15 K, m1 = 0.095	996.53 ± 0.56	1526.8 ± 1.8
308.15 K, m1 = 0.1002	996.67 ± 0.56	1527.2 ± 1.8

[Cl-].[K+] [potassium chloride] + O
Conditions	mass density, 288.15 K [kg/m3]	mass density, 298.15 K [kg/m3]	mass density, 308.15 K [kg/m3]	speed of sound, 288.15 K [m/s]	speed of sound, 298.15 K [m/s]	speed of sound, 308.15 K [m/s]
m1 = 0.06	1002.26 ± 0.55	1000.42 ± 0.55	997.25 ± 0.56	1467.4 ± 1.8	1498.3 ± 1.8	1522.2 ± 1.8
m1 = 0.1	1003.48 ± 0.55	1001.79 ± 0.55	998.71 ± 0.56	1469.6 ± 1.8	1502.5 ± 1.8	1525.1 ± 1.8
